Where two headings read alike, the source gives them in different places.
Key:
Experiment in all cases: Eurofins KINOMEscan profiling, 97 kinases
[1] = molecular target: 97 kinases (kinase named in endpoint) (Homo sapiens, UniProt P17612); settings: read-out: % Ctrl, PKAC-alpha
Description: (§1) This experiment was performed by Eurofins KINOMEscan™ Profiling Service. […] The lysates were centrifuged and filtered, the remaining kinases were produced in HEK-293 cells and subsequently tagged with DNA for qPCR detection. […] The liganded beads were blocked with excess biotin and washed with blocking buffer (SeaBlock (Pierce), 1% BSA, 0.05% Tween-20, 1 mM DTT). […] Test compounds were prepared as 100x stocks in 100% DMSO and directly diluted into the assay. All reactions were performed in polypropylene 384-well plates in a final volume of 0.02 ml. […] The kinase concentration in the eluates was measured by qPCR.
(§2) (negative control signal - positive control signal)] x 100. ( b) AccompanyingSelectivity Scores or S -scores
(§3) which are quantitative measures of compound selectivity. They are calculated by dividing the number of
(§4) kinases that compounds bind to by the total number of distinct kinases tested, excluding mutant variants.
(§5) S(35)= ( num ber of non -mutant kinases with %Ctrl <35)/(number of non- mutant kinases tested)], S(10)=
(§6) non- mutant kinases with %Ctrl <1)/(number of non- mutant kinases tested)].

[2] = molecular target: 97 kinases (kinase named in endpoint) (Homo sapiens, UniProt O15075); settings: read-out: % Ctrl, DCAMKL1
Description: as §1, §2, §3, §4, §5, §6

[3] = molecular target: 97 kinases (kinase named in endpoint) (Homo sapiens, UniProt P07333); settings: read-out: % Ctrl, CSF1R
Description: as §1, §2, §3, §4, §5, §6

[4] = molecular target: 97 kinases (kinase named in endpoint) (Homo sapiens, UniProt P04626); settings: read-out: % Ctrl, ERBB2
Description: as §1, §2, §3, §4, §5, §6

[5] = molecular target: 97 kinases (kinase named in endpoint) (Homo sapiens, UniProt P80192); settings: read-out: % Ctrl, MLK1
Description: as §1, §2, §3, §4, §5, §6

[6] = molecular target: 97 kinases (kinase named in endpoint) (Homo sapiens, UniProt P16234); settings: read-out: % Ctrl, PDGFRA
Description: as §1, §2, §3, §4, §5, §6

[7] = molecular target: 97 kinases (kinase named in endpoint) (Homo sapiens, UniProt P00533); settings: read-out: % Ctrl, EGFR
Description: as §1, §2, §3, §4, §5, §6

[8] = molecular target: 97 kinases (kinase named in endpoint) (Homo sapiens, UniProt P53779); settings: read-out: % Ctrl, JNK3
Description: as §1, §2, §3, §4, §5, §6

[9] = molecular target: 97 kinases (kinase named in endpoint) (Homo sapiens, UniProt O14965); settings: read-out: % Ctrl, AURKA
Description: as §1, §2, §3, §4, §5, §6

[10] = molecular target: 97 kinases (kinase named in endpoint) (Homo sapiens, UniProt Q86V86); settings: read-out: % Ctrl, PIM3
Description: as §1, §2, §3, §4, §5, §6

[11] = molecular target: 97 kinases (kinase named in endpoint) (Homo sapiens, UniProt P15056); settings: read-out: % Ctrl, BRAF
Description: as §1, §2, §3, §4, §5, §6

[12] = molecular target: 97 kinases (kinase named in endpoint) (Homo sapiens, UniProt Q9BVS4); settings: read-out: % Ctrl, RIOK2
Description: as §1, §2, §3, §4, §5, §6

[13] = molecular target: 97 kinases (kinase named in endpoint) (Homo sapiens, UniProt P24941); settings: read-out: % Ctrl, CDK2
Description: as §1, §2, §3, §4, §5, §6

[14] = molecular target: 97 kinases (kinase named in endpoint) (Homo sapiens, UniProt P31749); settings: read-out: % Ctrl, AKT1
Description: as §1, §2, §3, §4, §5, §6

[15] = molecular target: 97 kinases (kinase named in endpoint) (Homo sapiens, UniProt O00750); settings: read-out: % Ctrl, PIK3C2B
Description: as §1, §2, §3, §4, §5, §6

[16] = molecular target: 97 kinases (kinase named in endpoint) (Homo sapiens, UniProt Q00526); settings: read-out: % Ctrl, CDK3
Description: as §1, §2, §3, §4, §5, §6

[17] = molecular target: 97 kinases (kinase named in endpoint) (Homo sapiens, UniProt P10721, T670I/V559D); settings: read-out: % Ctrl, KIT(V559D,T670I)
Description: as §1, §2, §3, §4, §5, §6

[18] = molecular target: 97 kinases (kinase named in endpoint) (Homo sapiens, UniProt P36888); settings: read-out: % Ctrl, FLT3
Description: as §1, §2, §3, §4, §5, §6

[19] = molecular target: 97 kinases (kinase named in endpoint) (Homo sapiens, UniProt Q13873); settings: read-out: % Ctrl, BMPR2
Description: as §1, §2, §3, §4, §5, §6

[20] = molecular target: 97 kinases (kinase named in endpoint) (Homo sapiens, UniProt P49137); settings: read-out: % Ctrl, MAPKAPK2
Description: as §1, §2, §3, §4, §5, §6

[21] = molecular target: 97 kinases (kinase named in endpoint) (Homo sapiens, UniProt P00519, E255K); settings: read-out: % Ctrl, ABL1(E255K)-phosphorylated
Description: as §1, §2, §3, §4, §5, §6

[22] = molecular target: 97 kinases (kinase named in endpoint) (Homo sapiens, UniProt P00533, L858R); settings: read-out: % Ctrl, EGFR(L858R)
Description: as §1, §2, §3, §4, §5, §6

[23] = molecular target: 97 kinases (kinase named in endpoint) (Homo sapiens, UniProt Q06187); settings: read-out: % Ctrl, BTK
Description: as §1, §2, §3, §4, §5, §6

[24] = molecular target: 97 kinases (kinase named in endpoint) (Homo sapiens, UniProt P00519)
Description: as §1, §2, §3, §4, §5, §6

[25] = molecular target: 97 kinases (kinase named in endpoint) (Homo sapiens, UniProt P48730); settings: read-out: % Ctrl, CSNK1D
Description: as §1, §2, §3, §4, §5, §6

[26] = molecular target: 97 kinases (kinase named in endpoint) (Homo sapiens, UniProt P15056, V600E); settings: read-out: % Ctrl, BRAF(V600E)
Description: as §1, §2, §3, §4, §5, §6

[27] = molecular target: 97 kinases (kinase named in endpoint) (Homo sapiens, UniProt P36896); settings: read-out: % Ctrl, ACVR1B
Description: as §1, §2, §3, §4, §5, §6

[28] = read-out: % Ctrl, ABL1-nonphosphorylated
[29] = read-out: % Ctrl, ABL1-phosphorylated

97 kinases (kinase named in endpoint) (Homo sapiens, UniProt P00519), sequence (P00519 whole entry): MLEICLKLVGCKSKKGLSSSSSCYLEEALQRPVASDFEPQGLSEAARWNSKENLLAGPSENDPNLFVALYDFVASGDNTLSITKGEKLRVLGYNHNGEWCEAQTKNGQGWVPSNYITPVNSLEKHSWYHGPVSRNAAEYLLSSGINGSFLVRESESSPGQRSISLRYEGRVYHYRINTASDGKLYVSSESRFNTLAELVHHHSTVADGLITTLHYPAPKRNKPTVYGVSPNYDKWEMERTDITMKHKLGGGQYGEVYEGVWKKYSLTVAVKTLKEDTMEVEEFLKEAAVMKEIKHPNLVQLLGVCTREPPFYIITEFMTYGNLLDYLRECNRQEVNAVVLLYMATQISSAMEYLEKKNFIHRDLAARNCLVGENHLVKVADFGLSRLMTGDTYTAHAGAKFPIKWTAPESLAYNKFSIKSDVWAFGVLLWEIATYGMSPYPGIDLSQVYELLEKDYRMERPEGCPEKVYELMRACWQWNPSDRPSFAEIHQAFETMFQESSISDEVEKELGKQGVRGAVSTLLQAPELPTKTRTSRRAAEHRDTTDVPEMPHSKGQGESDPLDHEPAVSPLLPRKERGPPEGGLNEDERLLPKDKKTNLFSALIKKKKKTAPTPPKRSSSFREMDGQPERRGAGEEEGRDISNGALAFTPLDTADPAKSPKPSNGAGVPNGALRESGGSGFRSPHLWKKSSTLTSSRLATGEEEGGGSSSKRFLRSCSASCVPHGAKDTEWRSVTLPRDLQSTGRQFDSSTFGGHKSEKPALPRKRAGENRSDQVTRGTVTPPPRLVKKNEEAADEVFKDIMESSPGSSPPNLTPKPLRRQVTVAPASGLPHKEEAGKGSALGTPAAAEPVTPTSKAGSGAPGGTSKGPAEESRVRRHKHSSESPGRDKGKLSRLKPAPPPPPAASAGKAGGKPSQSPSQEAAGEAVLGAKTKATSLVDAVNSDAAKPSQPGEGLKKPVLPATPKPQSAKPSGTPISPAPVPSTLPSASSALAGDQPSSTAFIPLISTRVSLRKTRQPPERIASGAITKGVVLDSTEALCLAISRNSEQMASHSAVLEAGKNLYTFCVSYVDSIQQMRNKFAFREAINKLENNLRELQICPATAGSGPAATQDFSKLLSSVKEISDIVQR
97 kinases (kinase named in endpoint) (Homo sapiens, UniProt P80192), sequence (P80192 whole entry): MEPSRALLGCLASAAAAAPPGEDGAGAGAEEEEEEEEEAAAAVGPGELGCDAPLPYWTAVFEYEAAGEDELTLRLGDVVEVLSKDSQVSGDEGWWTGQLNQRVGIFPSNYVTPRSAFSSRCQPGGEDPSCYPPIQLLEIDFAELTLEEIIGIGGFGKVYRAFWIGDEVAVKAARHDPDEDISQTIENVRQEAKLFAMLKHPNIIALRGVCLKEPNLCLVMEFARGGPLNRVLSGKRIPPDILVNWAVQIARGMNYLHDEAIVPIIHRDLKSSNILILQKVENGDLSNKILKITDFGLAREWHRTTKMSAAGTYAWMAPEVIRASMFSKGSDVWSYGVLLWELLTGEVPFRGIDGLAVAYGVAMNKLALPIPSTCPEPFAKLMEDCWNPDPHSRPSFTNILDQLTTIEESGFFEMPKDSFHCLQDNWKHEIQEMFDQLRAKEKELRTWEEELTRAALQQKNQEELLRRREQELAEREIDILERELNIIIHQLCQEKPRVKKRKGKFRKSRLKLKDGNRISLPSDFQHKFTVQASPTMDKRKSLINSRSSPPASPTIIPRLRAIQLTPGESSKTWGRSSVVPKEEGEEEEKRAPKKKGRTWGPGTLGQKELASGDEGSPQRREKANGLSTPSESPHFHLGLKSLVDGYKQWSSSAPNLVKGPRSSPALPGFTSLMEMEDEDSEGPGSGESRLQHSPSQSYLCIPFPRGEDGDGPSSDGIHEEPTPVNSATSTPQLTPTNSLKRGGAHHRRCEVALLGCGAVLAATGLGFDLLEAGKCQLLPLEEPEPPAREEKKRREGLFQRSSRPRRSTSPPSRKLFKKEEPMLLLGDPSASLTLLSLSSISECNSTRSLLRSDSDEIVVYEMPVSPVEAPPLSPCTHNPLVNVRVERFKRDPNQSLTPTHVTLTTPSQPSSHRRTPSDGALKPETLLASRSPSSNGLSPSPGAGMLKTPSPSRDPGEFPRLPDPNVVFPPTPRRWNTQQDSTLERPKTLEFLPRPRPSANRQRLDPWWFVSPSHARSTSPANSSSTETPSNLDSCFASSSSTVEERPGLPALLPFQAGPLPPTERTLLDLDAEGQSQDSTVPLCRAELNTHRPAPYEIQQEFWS
97 kinases (kinase named in endpoint) (Homo sapiens, UniProt P07333), sequence (P07333 20-972): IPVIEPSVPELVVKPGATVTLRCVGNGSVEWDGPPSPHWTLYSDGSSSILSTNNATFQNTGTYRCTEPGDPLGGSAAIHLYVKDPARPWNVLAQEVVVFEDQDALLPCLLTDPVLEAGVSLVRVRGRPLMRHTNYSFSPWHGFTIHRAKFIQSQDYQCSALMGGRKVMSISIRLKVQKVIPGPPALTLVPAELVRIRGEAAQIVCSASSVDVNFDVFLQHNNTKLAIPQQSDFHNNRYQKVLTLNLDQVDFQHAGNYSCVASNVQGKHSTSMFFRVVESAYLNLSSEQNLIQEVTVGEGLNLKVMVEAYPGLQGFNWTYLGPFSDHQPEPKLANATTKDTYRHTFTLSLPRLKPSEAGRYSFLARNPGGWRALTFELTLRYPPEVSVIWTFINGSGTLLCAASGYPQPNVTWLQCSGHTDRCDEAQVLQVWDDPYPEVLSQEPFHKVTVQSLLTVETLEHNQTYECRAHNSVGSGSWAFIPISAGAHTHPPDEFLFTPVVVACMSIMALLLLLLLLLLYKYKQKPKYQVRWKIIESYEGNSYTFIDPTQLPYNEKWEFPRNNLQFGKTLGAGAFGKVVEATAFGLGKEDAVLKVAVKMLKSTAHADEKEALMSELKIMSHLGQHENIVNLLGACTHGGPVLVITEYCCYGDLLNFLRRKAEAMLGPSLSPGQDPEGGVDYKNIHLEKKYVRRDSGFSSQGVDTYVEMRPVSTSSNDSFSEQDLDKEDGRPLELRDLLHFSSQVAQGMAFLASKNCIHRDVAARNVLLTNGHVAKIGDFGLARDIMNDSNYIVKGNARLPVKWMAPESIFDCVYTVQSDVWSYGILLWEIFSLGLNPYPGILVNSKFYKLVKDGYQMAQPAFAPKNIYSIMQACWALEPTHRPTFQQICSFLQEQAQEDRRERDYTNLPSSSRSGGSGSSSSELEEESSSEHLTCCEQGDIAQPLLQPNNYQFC
97 kinases (kinase named in endpoint) (Homo sapiens, UniProt P00533, L858R), sequence (P00533 25-1210 L858R): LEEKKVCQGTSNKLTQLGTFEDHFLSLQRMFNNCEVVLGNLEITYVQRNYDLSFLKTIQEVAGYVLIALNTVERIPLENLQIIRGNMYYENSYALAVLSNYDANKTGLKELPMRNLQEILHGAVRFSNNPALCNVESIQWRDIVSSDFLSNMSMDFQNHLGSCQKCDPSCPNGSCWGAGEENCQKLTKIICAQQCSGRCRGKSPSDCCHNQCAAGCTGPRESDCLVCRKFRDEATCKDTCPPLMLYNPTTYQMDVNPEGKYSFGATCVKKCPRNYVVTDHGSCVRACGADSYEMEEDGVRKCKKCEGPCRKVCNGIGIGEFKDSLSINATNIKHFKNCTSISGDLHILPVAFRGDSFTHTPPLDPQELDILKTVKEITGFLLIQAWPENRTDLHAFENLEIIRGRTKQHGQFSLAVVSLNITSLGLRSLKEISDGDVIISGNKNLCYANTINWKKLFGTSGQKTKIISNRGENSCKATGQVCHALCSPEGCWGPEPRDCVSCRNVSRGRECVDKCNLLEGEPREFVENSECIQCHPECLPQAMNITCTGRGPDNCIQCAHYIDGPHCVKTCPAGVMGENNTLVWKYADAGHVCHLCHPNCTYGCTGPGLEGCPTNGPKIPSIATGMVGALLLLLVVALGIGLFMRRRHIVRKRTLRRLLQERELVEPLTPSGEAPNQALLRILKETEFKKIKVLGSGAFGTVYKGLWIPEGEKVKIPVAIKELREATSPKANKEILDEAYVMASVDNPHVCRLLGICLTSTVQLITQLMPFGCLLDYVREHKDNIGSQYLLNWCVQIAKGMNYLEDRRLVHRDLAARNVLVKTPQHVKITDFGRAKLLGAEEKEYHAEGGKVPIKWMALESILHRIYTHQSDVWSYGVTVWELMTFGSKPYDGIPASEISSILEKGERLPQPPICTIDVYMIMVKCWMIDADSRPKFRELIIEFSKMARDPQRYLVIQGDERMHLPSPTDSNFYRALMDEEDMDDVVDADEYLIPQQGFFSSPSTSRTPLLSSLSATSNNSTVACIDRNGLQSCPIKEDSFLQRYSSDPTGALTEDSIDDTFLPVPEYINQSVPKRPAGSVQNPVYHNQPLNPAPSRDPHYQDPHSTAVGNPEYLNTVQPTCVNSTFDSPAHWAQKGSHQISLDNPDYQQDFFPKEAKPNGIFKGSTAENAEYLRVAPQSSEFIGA
97 kinases (kinase named in endpoint) (Homo sapiens, UniProt P36896), sequence (P36896 24-505): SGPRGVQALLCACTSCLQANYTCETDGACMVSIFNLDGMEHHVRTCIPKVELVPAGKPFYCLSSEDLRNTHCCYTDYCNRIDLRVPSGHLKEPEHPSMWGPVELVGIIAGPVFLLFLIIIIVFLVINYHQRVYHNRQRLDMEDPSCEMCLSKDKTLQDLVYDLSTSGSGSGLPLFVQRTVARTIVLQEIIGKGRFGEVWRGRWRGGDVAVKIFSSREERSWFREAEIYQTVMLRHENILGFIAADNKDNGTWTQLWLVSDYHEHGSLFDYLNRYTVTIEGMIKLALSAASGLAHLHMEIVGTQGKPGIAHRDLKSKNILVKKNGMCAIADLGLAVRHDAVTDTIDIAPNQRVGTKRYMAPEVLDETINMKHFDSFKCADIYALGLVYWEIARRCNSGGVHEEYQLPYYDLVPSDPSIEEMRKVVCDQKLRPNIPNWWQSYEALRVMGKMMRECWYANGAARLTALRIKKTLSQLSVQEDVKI
97 kinases (kinase named in endpoint) (Homo sapiens, UniProt P00519, E255K), sequence (P00519 whole entry E255K): as the sequence (P00519 whole entry) above, with E255K counted along it

CCCCCCCCCCCCCC(=O)N[C@@H](CC(N)=O)C(=O)N[C@@H](CC(C)C)C(=O)N[C@]1(C)CCCCCCC=CCCC[C@@](C)(C(=O)N[C@@H](CCC(=O)O)C(=O)N[C@@H](CC(C)C)C(=O)N[C@@H](CC(N)=O)C(N)=O)NC(=O)[C@H](CC(C)C)NC(=O)[C@H](CC(C)C)NC(=O)[C@H](CCCNC(=N)N)NC(=O)[C@H](CC(=O)O)NC(=O)[C@H](CC(C)C)NC(=O)[C@H](CCC(=O)O)NC1=O [compound 2012]
remaining binding at 1 µM [1]: 91% | remaining binding at 1 µM [2]: 86% | remaining binding at 1 µM [3]: 95% | remaining binding at 1 µM [4]: 55% | remaining binding at 1 µM [5]: 100% | remaining binding at 1 µM [6]: 100% | remaining binding at 1 µM [7]: 93% | remaining binding at 1 µM [8]: 100% | remaining binding at 1 µM [9]: 100% | remaining binding at 1 µM [10]: 100% | remaining binding at 1 µM [11]: 100% | remaining binding at 1 µM [12]: 91% | remaining binding at 1 µM [13]: 88% | remaining binding at 1 µM [14]: 100% | remaining binding at 1 µM [15]: 100% | remaining binding at 1 µM [16]: 89% | remaining binding at 1 µM [17]: 93% | remaining binding at 1 µM [18]: 93% | remaining binding at 1 µM [19]: 100% | remaining binding at 1 µM [20]: 100% | remaining binding at 1 µM [21]: 70% | remaining binding at 1 µM [22]: 99% | remaining binding at 1 µM [23]: 100% | remaining binding at 1 µM [24, 28]: 56% | remaining binding at 1 µM [24, 29]: 80% | remaining binding at 1 µM [25]: 97% | remaining binding at 1 µM [26]: 100% | remaining binding at 1 µM [27]: 81%

CNC(=O)c1ccc(Nc2ncc(C(F)(F)F)c(NCc3nccnc3N(C)S(C)(=O)=O)n2)cc1 [defactinib]
remaining binding at 1 µM [1]: 72% | remaining binding at 1 µM [2]: 47% | remaining binding at 1 µM [3]: 72% | remaining binding at 1 µM [4]: 65% | remaining binding at 1 µM [5]: 6.7% | remaining binding at 1 µM [6]: 82% | remaining binding at 1 µM [7]: 92% | remaining binding at 1 µM [8]: 90% | remaining binding at 1 µM [9]: 3.9% | remaining binding at 1 µM [10]: 40% | remaining binding at 1 µM [11]: 100% | remaining binding at 1 µM [12]: 50% | remaining binding at 1 µM [13]: 63% | remaining binding at 1 µM [14]: 100% | remaining binding at 1 µM [15]: 100% | remaining binding at 1 µM [16]: 62% | remaining binding at 1 µM [17]: 37% | remaining binding at 1 µM [18]: 1.1% | remaining binding at 1 µM [19]: 25% | remaining binding at 1 µM [20]: 100% | remaining binding at 1 µM [21]: 82% | remaining binding at 1 µM [22]: 81% | remaining binding at 1 µM [23]: 100% | remaining binding at 1 µM [24, 28]: 37% | remaining binding at 1 µM [24, 29]: 51% | remaining binding at 1 µM [25]: 93% | remaining binding at 1 µM [26]: 100% | remaining binding at 1 µM [27]: 83%
